Data as given in ChEMBL document CHEMBL5346981, “Structure-Guided Design and Synthesis of a Pyridazinone Series of Trypanosoma cruzi Proteasome Inhibitors” (J Med Chem, 2023).
Activity calls are given as the source filed them. The calls are words filed in the database; no cut-off is given here.

Key:
[1] = Cytotoxicity against African green monkey Vero E6 cells assessed as reduction in cell viability; assay type: toxicity, cell-based; conditions: African green monkey (Chlorocebus sabaeus)
[2] = Inhibition of chymotrypsin like activity in Trypanosoma cruzi Silvio X10/7 proteasome using Suc-LLVY-Rho-110-D-Proline peptide as substrate preincubated for 10 mins followed by substrate addition and measured for 30 mins by fluorescence based microplate reader analysis
Trypanosoma cruzi [3] = assay: Antiprotozoal activity against intracellular Trypanosoma cruzi X10/7 A1 amastigotes infected in Vero cells assessed as parasite growth inhibition incubated for 72 to 96 hrs by Hoechst 33342 staining based analysis; assay type: functional, organism-based; conditions: X10/7 A1, Vero
Blood [4] = assay: T>EC99 in Balb/c mouse assessed as time of blood total concentration in mouse exceeding EC99 for antiprotozoal activity against intracellular Trypanosoma cruzi infected in Vero cells at 50 mg/kg, po and measured upto 24 hrs by UPLC-MS/MS analysis; assay type: ADME, organism-based; conditions: in vivo
Blood [5] = assay: T>EC99 in Balb/c mouse infected with Trypanosoma cruzi X10/7 A1 assessed as time of blood free drug concentration in mouse exceeding EC99 for antiprotozoal activity against intracellular Trypanosoma cruzi infected in Vero cells at 50 mg/kg, po and measured after 20 days by UPLC-MS/MS analysis; assay type: ADME, organism-based; conditions: in vivo, 480 h, time 20 day
Blood [6] = assay: T>EC99 in Balb/c mouse infected with Trypanosoma cruzi X10/7 A1 assessed as time of blood free drug concentration in mouse exceeding EC99 for antiprotozoal activity against intracellular Trypanosoma cruzi infected in Vero cells at 50 mg/kg, po and measured after 1 day by UPLC-MS/MS analysis; assay type: ADME, organism-based; conditions: in vivo, 24 h
Trypanosoma cruzi [7] = assay: Antitrypanosomal activity against Trypanosoma cruzi X10/7 A1 infected in Balb/c mouse assessed as parasite clearance at 100 mg/kg, po bid for 20 days by bioluminescence analysis; assay type: functional, organism-based; conditions: time 20.0 day

## COc1ccc(Cn2nc(C(=O)Nc3ccc(F)c(C(=O)NCCN4CCOCC4)c3)ccc2=O)cc1
[1]
  EC50: > 50.1 µM
[2]
  pIC50: 6.9

## O=C(Nc1ccc(F)c(-c2cn3nc(N4CCOCC4)cnc3n2)c1)N1CCCC1
[1]
  EC50: > 50.1 µM
[2]
  pIC50: 7.3

## O=C(NC1CC1)c1ccc(F)c(NC(=O)c2ccc(=O)n(Cc3ccccc3)n2)c1
[1]
  EC50: > 50.1 µM
[2]
  pIC50: 5.8

## CN(C(=O)c1cccc(NC(=O)c2ccc(=O)n(Cc3ccccc3)n2)c1)C1CC1
[2]
  pIC50: 4.7

## COc1ccc(Cn2nc(C(=O)Nc3ccc(F)c(C(=O)N[C@H]4C[C@@H](N5CCOCC5)C4)c3)ccc2=O)cc1F
[2]
  pIC50: 8.1

## COc1ncc(Cn2nc(C(=O)Nc3ccc(F)c(C(=O)NC4CC4)c3)ccc2=O)cc1F
Trypanosoma cruzi [3]
  EC50: 31.6 µM
[1]
  EC50: > 50.1 µM

## COc1cccc(Cn2nc(C(=O)Nc3ccc(F)c(C(=O)NC4CC4)c3)ccc2=O)c1
[1]
  EC50: > 50.1 µM
[2]
  pIC50: < 4

## O=C(Nc1ccc(F)c(C(=O)NC2CC2)c1)c1ccc(=O)n(Cc2ccc(Cl)c(F)c2)n1
Trypanosoma cruzi [3]
  EC50: 0.251 µM
[1]
  EC50: > 50.1 µM
[2]
  pIC50: 7.6

## COc1ccc(Cn2nc(C(=O)Nc3ccc(F)c(C(=O)NC4CC4)c3)ccc2=O)cc1F
Blood [4]
  T>EC99: 14 h
[2]
  pIC50: 8.1

## O=C(NC1CC1)c1cccc(NC(=O)c2ccc(=O)n(Cc3ccccc3)n2)c1
Trypanosoma cruzi [3]
  EC50: 10 µM
[2]
  pIC50: 6.2

## O=C(Nc1ccc(F)c(C(=O)NC2CC2)c1)c1ccc(=O)n(CC2CCCCC2)n1
[1]
  EC50: > 50.1 µM
[2]
  pIC50: 6.4

## COc1ccc(Cn2nc(C(=O)Nc3ccc(F)c(C(=O)N[C@H]4C[C@H](N5CCOCC5)C4)c3)ccc2=O)cc1F
[2]
  pIC50: 8.1

## COc1ccc(Cn2nc(C(=O)Nc3ccc(F)c(C(=O)NC4CC4)c3)ccc2=O)cc1
[1]
  EC50: > 50.1 µM
[2]
  pIC50: 7.5

## O=C(Nc1ccc(F)c(C(=O)NC2CC2)c1)c1ccc(=O)n(Cc2ccccc2)n1
Trypanosoma cruzi [3]
  EC50: 2.51 µM
[1]
  EC50: > 50.1 µM
[2]
  pIC50: 6.8

## O=C(Nc1cccc(C(=O)NC2CC2)c1)c1ccc(=O)n(Cc2ccccc2)c1
[1]
  EC50: > 50.1 µM
[2]
  pIC50: 5.8

## CNC(=O)c1cc(NC(=O)c2ccc(=O)n(Cc3ccc(OC)c(F)c3)n2)ccc1F
[2]
  pIC50: 8.2

## CN(C(=O)c1ccc(=O)n(Cc2ccccc2)n1)c1cccc(C(=O)NC2CC2)c1
[1]
  EC50: > 50.1 µM
[2]
  pIC50: < 4

## CNC(=O)c1cc(NC(=O)c2ccc(=O)n(Cc3ccc(OC)cc3)n2)ccc1F
Blood [5]
  T>EC99: < 2 h
Blood [6]
  T>EC99: 5 h

## O=C(Cn1ccnc1[N+](=O)[O-])NCc1ccccc1
Trypanosoma cruzi [7]
  Activity: Active

## COc1ccc(Cn2nc(C(=O)Nc3ccc(F)c(C(=O)N[C@H](C)CO)c3)ccc2=O)cc1F
Trypanosoma cruzi [3]
  EC50: 0.316 µM
[2]
  pIC50: 7.3

## COc1ccc(Cn2nc(C(=O)Nc3ccc(F)c(C(=O)N[C@H]4C[C@H](OC)C4)c3)ccc2=O)cc1F
[2]
  pIC50: 8.2

## COc1ccc(Cn2nc(C(=O)Nc3ccc(F)c(C(=O)NC4CC4)c3)ccc2=O)cc1C#N
[1]
  EC50: > 50.1 µM
[2]
  pIC50: 8

## COc1ccc(Cn2nc(C(=O)Nc3ccc(F)c(C(=O)NC4CC4)c3)ccc2=O)cc1Cl
[1]
  EC50: > 50.1 µM
[2]
  pIC50: 8.5
